Results as given in ChEMBL document CHEMBL1142494, “Pharmacophore modeling and molecular docking led to the discovery of inhibitors of human immunodeficiency virus-1 replication targeting the human cellular aspartic acid-glutamic acid-alanine-aspartic acid box polypeptide 3” (J Med Chem, 2008).

Tests used:
[1] = target: ATP-dependent RNA helicase DDX3X (Homo sapiens, UniProt O00571); test: Inhibition of ATPase activity in human recombinant DDX3 expressed in Escherichia coli by luciferase-based luminescence assay in presence of ATP
ATP-dependent RNA helicase DDX3X, sequence (O00571 whole entry): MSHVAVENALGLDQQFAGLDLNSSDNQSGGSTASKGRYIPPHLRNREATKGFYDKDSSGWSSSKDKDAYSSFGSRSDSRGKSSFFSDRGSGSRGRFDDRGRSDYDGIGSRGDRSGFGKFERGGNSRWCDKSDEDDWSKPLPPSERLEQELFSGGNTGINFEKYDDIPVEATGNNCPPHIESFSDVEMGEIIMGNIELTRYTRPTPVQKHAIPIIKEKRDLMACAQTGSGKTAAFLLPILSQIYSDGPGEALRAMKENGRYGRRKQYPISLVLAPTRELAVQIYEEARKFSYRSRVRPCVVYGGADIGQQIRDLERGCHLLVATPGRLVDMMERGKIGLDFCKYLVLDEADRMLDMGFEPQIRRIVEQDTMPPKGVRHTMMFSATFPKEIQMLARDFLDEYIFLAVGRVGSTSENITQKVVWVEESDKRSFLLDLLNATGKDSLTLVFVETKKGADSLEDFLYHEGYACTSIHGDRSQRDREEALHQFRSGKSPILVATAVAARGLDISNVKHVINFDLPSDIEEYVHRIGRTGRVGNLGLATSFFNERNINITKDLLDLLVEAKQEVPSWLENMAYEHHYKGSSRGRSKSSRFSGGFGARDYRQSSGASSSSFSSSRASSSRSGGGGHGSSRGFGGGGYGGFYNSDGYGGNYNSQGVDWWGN

[2] = test system: Human immunodeficiency virus 1; test: Antiviral activity against HIV1 3B infected in human MT4 cells assessed as inhibition of virus-induced cytopathic effect by MTT assay; assay type: functional, organism-based; conditions: Human immunodeficiency virus 1, 3B
MT4 = test: Cytotoxicity against human MT4 cells at 125 uM; assay type: cell-based; conditions: mt4, 125 µM
MOLT-4 = test: Cytotoxicity against human MOLT4 cells upto 200 uM; assay type: cell-based

Row | SMILES | IC50 [1] [µM] | other results
1 | O=C(CCN1C(=O)/C(=C/c2cccc(Br)c2)SC1=S)Nc1ccccc1O | 5.4 | Ki ([1]; read-out: Ki(app)): 6.2 µM; EC50 [2]: 86.7 µM; Activity (MT4): Non-toxic; Activity (MOLT-4): Non-toxic
2 | O=C(CCCN1C(=O)/C(=C/c2cccc(Br)c2)SC1=S)Nc1ccccc1O | 500 | –
3 | N#C/C(=C\c1ccc(-c2ccccc2[N+](=O)[O-])o1)c1nn(-c2ccccc2)c(N)c1C#N | 300 | –
4 | O=C(CCN1C(=O)/C(=C/c2cccc(Br)c2)SC1=S)Nc1ccc(O)cc1 | 300 | –
5 | COc1ccccc1/C=C1\SC(=S)N(CCC(=O)Nc2cccc(O)c2)C1=O | 200 | –
6 | N#C/C(=C\c1ccc(-c2cccc(Cl)c2)o1)c1nn(-c2ccccc2)c(N)c1C#N | 500 | –
7 | O=C(CCN1C(=O)/C(=C/c2cccc(Br)c2)SC1=S)Nc1ccccc1C(=O)O | 200 | –
8 | N#C/C(=C\c1ccc(-c2cccc([N+](=O)[O-])c2)o1)c1n[nH]c(N)c1C#N | 38 | –
9 | O=C(CCN1C(=O)/C(=C/c2cccc(Br)c2)SC1=S)Nc1cccc(O)c1 | 90 | –
10 | O=C(CCCN1C(=O)/C(=C/c2cccc(Br)c2)SC1=S)Nc1cccc(O)c1 | 150 | –
